Key:
[1] = Antiinflammatory activity in mouse RAW264.7 cells assessed as inhibition of LPS-induced nitric oxide production at 1 uM after 18 hrs by Griess assay relative to control; format: functional; details: RAW264.7, 18 h
[2] = Antiinflammatory activity in mouse RAW264.7 cells assessed as inhibition of LPS-induced nitric oxide production at 10 uM after 18 hrs by Griess assay relative to control; format: functional; details: RAW264.7, 18 h
RAW264.7 [3] = test: Antiinflammatory activity in mouse RAW264.7 cells assessed as inhibition of LPS-induced nitric oxide production at 1 to 10 uM after 18 hrs by Griess assay; format: functional, cell-based
[4] = Antiinflammatory activity in mouse RAW264.7 cells assessed as inhibition of LPS-induced nitric oxide production at 50 to 100 uM after 18 hrs by Griess assay relative to control; format: functional
[5] = Cytotoxicity against mouse RAW264.7 cells assessed as cell proliferation rate at 1 uM after 24 hrs by MTS assay relative to control; format: toxicity; details: read-out: Activity
[6] = Cytotoxicity against mouse RAW264.7 cells assessed as cell proliferation rate at 10 uM after 24 hrs by MTS assay relative to control; format: toxicity; details: read-out: Activity
[7] = Cytotoxicity against mouse RAW264.7 cells assessed as cell proliferation rate at 50 uM after 24 hrs by MTS assay relative to control; format: toxicity; details: read-out: Activity
[8] = Cytotoxicity against mouse RAW264.7 cells assessed as cell proliferation rate at 100 uM after 24 hrs by MTS assay relative to control; format: toxicity; details: read-out: Activity
[9] = Cytotoxicity against mouse RAW264.7 cells assessed as decrease in cell proliferation rate after 24 hrs by MTS assay; format: toxicity
RAW264.7 [10] = test: Effect on LPS-induced iNOS expression in mouse RAW264.7 cells at 10 uM after 18 hrs by Western blot method relative to LPS; format: functional

| SMILES | inhibition at 1 µM [1] [%] | inhibition at 10 µM [2] [%] | inhibition (RAW264.7 [3]) | inhibition (INH) [4] [%] | viability at 24 h, 1 µM [5] [%] | viability at 24 h, 10 µM [6] [%] | viability at 24 h, 50 µM [7] [%] | viability at 24 h, 100 µM [8] [%] | IC50 at 24 h [9] [µM] | fold change (FC) (RAW264.7 [10]) |
| --- | --- | --- | --- | --- | --- | --- | --- | --- | --- | --- |
| COc1ccc(CCc2ccc(O)c(O)c2O)cc1OC | 42.7 | 47 | Dose-dependent effect | >80 | 114 | 114 | 128 | 133 | 6.02 | 0.92 |
| CNC(=N)NCCC[C@H](N)C(=O)O [TILARGININE] | 15 | 90.1 | – | – | 100 | 100 | 113 | 97.2 | 2.73 | 0.92 - 1.02 |
| COc1cc(CCc2cc(OC)c(O)c(OC)c2)ccc1O [MOSCATILIN] | 7.4 | 78.4 | Dose-dependent effect | >80 | 143 | 52.9 | 47 | 59.6 | 4.4 | 0.93 |
| COc1cc(CCc2cc(OC)c(OC)cc2O)ccc1O | 35.2 | 29.5 | – | >80 | 120 | 124 | 128 | 133 | 13.8 | 1.12 |
| COc1cc(CCCc2cc(OC)c(O)c(OC)c2)ccc1O | 27.2 | 21.8 | – | >80 | 98.4 | 98.7 | 88.7 | 82 | 16.4 | 0.81 |
| COc1ccc(CCc2ccc(O)c(O)c2OC)cc1OC | 24.3 | 75.5 | Dose-dependent effect | >80 | 106 | 99.9 | 94.8 | 81.9 | 2.98 | 0.65 |
| COc1ccc(CCCc2ccc(O)c(O)c2O)cc1OC | 29.6 | 28.6 | – | >80 | 110 | 130 | 86.4 | 73.2 | 10.7 | 0.71 |
| COc1ccc(CCCc2ccc(O)c(O)c2OC)cc1OC | 36.9 | 100 | Dose-dependent effect | >80 | 118 | 103 | 86.3 | 61.9 | 1.84 | 0.39 |
| Oc1cc(O)cc(CCCc2ccc3c(c2)OCO3)c1 | 40.8 | 53.6 | Dose-dependent effect | >80 | 116 | 102 | 86.7 | 70.4 | 1.3 | 0.74 |
| COc1cc(CCCc2cc(OC)c(OC)cc2O)ccc1O | 38.2 | 56.5 | Dose-dependent effect | >80 | 135 | 113 | 88.4 | 80.9 | 4.46 | 0.73 |
| Oc1cc(O)cc(CCc2ccc3c(c2)OCO3)c1 | 17 | 28.3 | Dose-dependent effect | >80 | 96.8 | 90.8 | 82.7 | 78.9 | 14.5 | 0.93 |

From ChEMBL document CHEMBL3864155, “Dihydrostilbenes and diarylpropanes: Synthesis and in vitro pharmacological evaluation as potent nitric oxide production inhibition agents” (Bioorg Med Chem Lett, 2016)
